Values of other authors in patent US5198423A, “Functional polypeptide containing a cell binding domain and a heparin binding domain of fibronectin” (Takara Shuzo Co., Ltd., priority 1989, dated 1993).

Tested on: angiogenesis
Settings: chick embryo chorions, rabbit corneas, and hamster cheek pouches

SMILES	inhibition of angiogenesis, in words
C[C@@H]1C[C@H]2[C@@H]3CCC4=CC(=O)C=C[C@]4(C)[C@@]3(F)[C@@H](O)C[C@]2(C)[C@@]1(O)C(=O)CO [dexamethasone]	found to inhibit angiogenesis
C[C@H]1C[C@@H]2[C@H]([C@@H](O)C[C@@]3(C)[C@H]2CC[C@]3(O)C(=O)CO)[C@@]2(C)C=CC(=O)C=C12 [6α-methylprednisolone]	found to inhibit angiogenesis
C[C@]12C=CC(=O)C=C1CC[C@@H]1[C@@H]2[C@@H](O)C[C@@]2(C)[C@H]1CC[C@]2(O)C(=O)CO [prednisolone]	found to inhibit angiogenesis
